Measurements as given in patent publication US20080176261A1, “Colorimetric Substrate and Methods for Detecting Poly(ADP-ribose) Polymerase Activity including PARP Enzymes PARP-1, VPARP, and Tankyrase-1” (THE BOARD OF TRUSTEES OF THE UNIVERSITY OF ILLINOIS, priority 2007, published 2008).

Experiments:
PARP-1 = PARP-1 (Homo sapiens, UniProt P09874); test: biochemical
Description: (§1) For these measurements, concentrations of DPQ ranging from 0.05 nM to 10 μM were added to a 96-well plate containing PARP assay buffer and ADP-ribose-pNP and the absorbance at 405 nm was measured in triplicate.
(§2) Determination of IC50 values for PARP inhibitors. To determine IC50 values of the PARP inhibitors, 22.5 μL of PARP assay buffer containing varying concentrations of DPQ and 20 μg/mL DNase activated DNA (for PARP-1 only) were added into the wells of a 384-well plate. A 22.5 μL volume of PARP at a concentration of 5 μg/mL PARP-1, 40 μg/mL VPARP and 40 μg/mL tankyrase-1 in PARP assay buffer was added. The reaction was initiated by the addition of 5 μL of a 2.5 mM solution of ADP-ribose-pNP in PARP assay buffer, bringing the final concentration to 2.5 μg/mL PARP-1 with 10 μg/mL DNA or 20 μg/mL VPARP or 20 μg/mL tankyrase-1, 250 μM ADP-ribose-pNP with varying concentrations of inhibitors in a total volume of 50 μL. The plate was then read every 2 minutes for 2 hours at 405 nm on a SpectraMax 384 plate reader (Molecular Devices). […]
(§3) Data analysis. Data from the plate reader was imported into Excel where appropriate subtractions were made and the data was plotted. Graphs were analyzed using Table Curve 2D. […]

tankyrase-1 = target: T1, tankyrase-1 (Homo sapiens, UniProt O95271); test: IC50 determination of PARP inhibitor with ADP-ribose-pNP substrate, tankyrase-1; assay type: biochemical; conditions: 250 μM ADP-ribose-pNP
T1 construct: The SAM and PARP domain of tankyrase was subcloned into pGEX-5X-1; made in house; host or cells: E. coli Rosetta
T1 sequence (O95271 1030-1327): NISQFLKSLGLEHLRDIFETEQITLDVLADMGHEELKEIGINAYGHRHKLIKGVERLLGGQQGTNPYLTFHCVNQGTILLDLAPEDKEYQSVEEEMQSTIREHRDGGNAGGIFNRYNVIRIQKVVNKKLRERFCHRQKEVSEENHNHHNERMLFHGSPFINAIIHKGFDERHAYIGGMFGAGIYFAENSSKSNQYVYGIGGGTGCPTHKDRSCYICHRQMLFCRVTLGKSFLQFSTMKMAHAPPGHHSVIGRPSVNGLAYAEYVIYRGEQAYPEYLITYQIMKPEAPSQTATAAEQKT
Description: as §1, §2, §3

VPARP = target: T2, VPARP (Homo sapiens, UniProt Q9UKK3); test: IC50 determination of PARP inhibitor with ADP-ribose-pNP substrate, VPARP; assay type: biochemical; conditions: 250 μM ADP-ribose-pNP
T2 construct: The plasmid with the catalytic domain of VPARP, pET28b-p193cat; made in house; host or cells: E. coli Rosetta
T2 sequence (Q9UKK3 369-573 limits assumed): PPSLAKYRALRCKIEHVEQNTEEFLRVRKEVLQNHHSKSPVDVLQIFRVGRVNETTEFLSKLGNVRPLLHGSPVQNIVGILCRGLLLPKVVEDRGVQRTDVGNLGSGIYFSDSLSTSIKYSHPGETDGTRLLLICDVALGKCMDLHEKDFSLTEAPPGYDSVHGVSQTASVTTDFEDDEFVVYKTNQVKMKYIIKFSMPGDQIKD
Description: as §1, §2, §3

Chain of PARP-1 (P09874 whole entry): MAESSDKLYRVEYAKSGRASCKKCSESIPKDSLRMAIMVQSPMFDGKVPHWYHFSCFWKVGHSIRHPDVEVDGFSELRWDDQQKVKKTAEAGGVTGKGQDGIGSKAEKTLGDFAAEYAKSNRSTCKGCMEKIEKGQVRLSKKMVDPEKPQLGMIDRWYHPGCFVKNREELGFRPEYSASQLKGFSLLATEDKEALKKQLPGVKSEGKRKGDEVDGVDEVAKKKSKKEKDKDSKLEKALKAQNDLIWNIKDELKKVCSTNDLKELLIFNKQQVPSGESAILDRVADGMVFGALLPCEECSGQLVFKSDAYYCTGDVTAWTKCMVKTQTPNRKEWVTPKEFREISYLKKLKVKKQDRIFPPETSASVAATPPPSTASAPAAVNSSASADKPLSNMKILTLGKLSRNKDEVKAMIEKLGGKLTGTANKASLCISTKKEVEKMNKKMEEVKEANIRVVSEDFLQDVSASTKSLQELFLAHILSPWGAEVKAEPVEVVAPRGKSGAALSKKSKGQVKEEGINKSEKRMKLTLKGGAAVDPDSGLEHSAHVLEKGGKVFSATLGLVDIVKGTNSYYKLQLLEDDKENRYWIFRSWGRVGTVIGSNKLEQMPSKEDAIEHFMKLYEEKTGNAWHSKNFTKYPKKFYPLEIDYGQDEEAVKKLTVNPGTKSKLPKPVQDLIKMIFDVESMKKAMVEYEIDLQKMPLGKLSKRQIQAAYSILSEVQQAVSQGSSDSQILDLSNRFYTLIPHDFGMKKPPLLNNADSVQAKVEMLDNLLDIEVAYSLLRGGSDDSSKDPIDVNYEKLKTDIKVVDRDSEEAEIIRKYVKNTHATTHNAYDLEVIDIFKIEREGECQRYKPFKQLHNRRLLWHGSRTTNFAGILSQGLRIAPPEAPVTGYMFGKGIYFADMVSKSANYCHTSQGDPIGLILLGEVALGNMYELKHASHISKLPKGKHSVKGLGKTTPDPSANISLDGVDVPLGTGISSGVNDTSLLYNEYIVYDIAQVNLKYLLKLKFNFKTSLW

O=C1NCCc2c(OCCCCN3CCCCC3)cccc21 [DPQ, 3,4-Dihydro-5-[4-(1-piperidinyl)butoxyl]-1 (2H)-isoquinolinone]
IC50 (PARP-1): 23 nM
IC50 (tankyrase-1): 33 nM
IC50 (VPARP): 281 nM
